# Test system: Primary neuronal cultures
# Experiment: Neuroprotection after oxygen-glucose deprivation (OGD 4 h, 24 h recovery) in primary neuronal cultures, cell viability by MTT assay
# Type: cell-based, rat
# Conditions: for cell viability: MTT absorbance after OGD 4 h and 24 h recovery, R24h vehicle 1.480 ± 0.02 AU, control 1.916 ± 0.07 AU; for Neuroprotection at 1 µM / Neuroprotection at 10 µM / Neuroprotection at 100 µM: Rattus norvegicus; for Neuroprotection at 1 µM: Conc 1 µM; for Neuroprotection at 10 µM: Conc 10 µM; for protective effect (cell viability compared with vehicle-treated group R24h), in words: concentration range tested, from 0.1 to 250 µM; for neuroprotection effect / potency compared with references, in words: 1 µM for the compounds of the invention vs 10 µM for QN23 and 100 µM NXY-059; for toxicity / safety, in words: all tested doses
# Method: Primary Neuronal Cultures. Primary neuronal cultures were prepared from rat embryos cerebral cortex following a procedure previously described by our group. Briefly, cell suspensions were prepared from cerebral cortices from E16 Sprague Dawley rat embryos and seeded on plastic multidishes precoated with 0.05 mg/mL poly-D-lysine at a density of 2.5 × 10^5 cells/cm^2. Cells were kept at 37 °C in a 6.5% CO2 atmosphere in high glucose DMEM medium supplemented with 15% heat-inactivated (56 °C, 30 min) fetal calf serum. After 24 h, culture medium was replaced by serum-free medium (DMEM/Ham's F12, 1:1 vol/vol, 5 mg/mL glucose, 2 mM L-glutamine, and 1 mM sodium pyruvate, supplemented with 100 µg/mL transferrin, 100 µM putrescine, 30 nM sodium selenite, 20 nM progesterone, and 5 µg/mL insulin). In these experiments, 6- to 7-days in vitro (DIV) neuronal cultures were used, containing 90% β-tubulin isotype III-positive mature neurons, as described previously.^23 All procedures associated with animal experiments were authorized by the Animal Experimentation Ethics Committee of the Hospital Universitario Ramón y Cajal (Madrid, Spain).
# Experimental Ischemia in Neuronal Cultures and Treatments. Primary neuronal cultures were subjected to oxygen-glucose deprivation (OGD) to induce experimental ischemia. Cells cultured for 6- to 7- DIV were washed and placed in glucose-free DMEM medium (previously bubbled with 95% N2/5% CO2 for 30 min) and kept in a humidified anaerobic chamber containing a gas mixture of 95% N2/5% CO2 at 37 °C for 4 h (OGD 4h). Control group was placed in glucose-supplemented DMEM medium and kept in the normoxic incubator for 4h. After 4h of incubation under anoxic (OGD 4h) or normoxic (control) conditions, culture cells were quickly placed in serum-free normo-glycemic culture medium and let to reoxygenate, compounds or vehicle were added and cells were maintained in normoxic and normoglycemic conditions to recover for 24 h. Vehicle experimental group (R24h) included the same amount of vehicle solution than the groups tested with compounds (final concentration < 0.5% ethanol). The experimental procedure was blindly performed, assigning a random order to each group assayed. Compound assays were performed independently from four to eight times with different batches of cultures, and each experiment was run in quadruplicate.
# Cell viability assays. To assess the potential neuroprotective effect of the compounds against OGD, cell viability was evaluated by quantification of living, metabolically active cells, as determined by the colorimetric assay using the photometric reduction of 3-(4,5-dimethylthiazol-2-yl)-2,5-diphenyl tetrazolium bromide (MTT) (Roche) to a blue formazan product. MTT assay was performed after the 24-hour-long recovery period -except for the OGD 4h group, for which MTT was added right after the end of the OGD period, with no recovery- by treating cells with 0.2 mg/mL MTT in the culture medium for 1.5 h at 37 °C in a 6.5% CO2 atmosphere. After incubation, cells were lysed with an equal volume of lysis solution (10 mM HCl, 10% SDS) overnight. Values were quantified by absorbance at 595 nm (reference 690 nm) and expressed in Absorbance Units (AU). Decreased MTT activity denotes impairment of mitochondrial function and is indicative of cell damage.
# Statistical Analysis. Data from each treatment were independently analyzed and their averaged values were used for statistical analysis. The treatment information was kept concealed throughout the study. Data were represented as mean ± SE. Analysis of variance (ANOVA) was performed to compare the data between multiple concentrations, following post hoc test when analysis of variance was significant. Statistical significance level was set at α = 0.05 using Prism statistical software (GraphPad Software).
# Cell viability observed in the control group was set as 100% of neuroprotection. […]
# [1] = Conc 100 µM, added at onset of 24 h recovery after OGD 4 h, R24h vehicle = 0%, control = 100%, mean ± SE
# [2] = added at onset of 24 h recovery after OGD 4 h, R24h vehicle = 0%, control = 100%, mean ± SE
smiles,measurement,setting,value
"CC(C)(C)[N+]([O-])=Cc1ccc(S(=O)(=O)[O-])cc1S(=O)(=O)[O-].[Na+].[Na+] [NXY-059, reference compound]",cell viability,100 µM,1.664 ± 0.07 AU
same,Neuroprotection (%),[1],41.93 ± 2.26%
"C#CCOc1ccc2nc(Cl)c(/C=[N+](\[O-])Cc3ccccc3)cc2c1 [QN1, (Z)-N-Benzyl-1-(2-chloro-6-(prop-2-yn-1-yloxy)quinolin-3-yl)methanimine oxide]",Neuroprotection at 1 µM,[2],26.9 ± 0.88%
same,Neuroprotection at 10 µM,[2],34.8 ± 0.78%
same,Neuroprotection at 100 µM,[1],41.3 ± 1.91%
same,"protective effect (cell viability compared with vehicle-treated group R24h), in words",,no remarkable overall protective effect
"C#CCOc1ccc2nc(Cl)c(/C=[N+](\[O-])C(C)(C)C)cc2c1 [QN2, (Z)-N-tert-Butyl-1-(2-chloro-6-(prop-2-yn-1-yloxy)quinolin-3-yl)methanimine oxide]",Neuroprotection at 1 µM,[2],33.7 ± 0.73%
same,Neuroprotection at 10 µM,[2],33.3 ± 0.93%
same,Neuroprotection at 100 µM,[1],40 ± 0.77%
same,"protective effect (cell viability compared with vehicle-treated group R24h), in words",,no remarkable overall protective effect
"[O-]/[N+](=C\c1cc2cc(OCc3ccccc3)ccc2nc1Cl)Cc1ccccc1 [QN3, (Z)-N-Benzyl-1-(6-(benzyloxy)-2-chloroquinolin-3-yl)methanimine oxide]",Neuroprotection at 1 µM,[2],45.2 ± 1%
"CC(C)(C)/[N+]([O-])=C/c1cc2cc(OCc3ccccc3)ccc2nc1Cl [QN4, (Z)-N-tert-Butyl-1-(6-(benzyloxy)-2-chloroquinolin-3-yl)methanimine oxide]","neuroprotection effect / potency compared with references, in words",,highest neuroprotection effect
same,cell viability,1 µM,1.777 ± 0.04 AU
same,Neuroprotection at 1 µM,[2],67.9 ± 1.44%
"COc1ccc2nc(O)c(/C=[N+](\[O-])C(C)(C)C)cc2c1 [QN5, (Z)-N-tert-Butyl-1-(2-hydroxy-6-methoxyquinolin-3-yl)methanimine oxide]",Neuroprotection at 1 µM,[2],24.5 ± 0.54%
same,"protective effect (cell viability compared with vehicle-treated group R24h), in words",,did not give a remarkable protective effect
"COc1ccc2nc(F)c(/C=[N+](\[O-])Cc3ccccc3)cc2c1 [QN6, (Z)-N-Benzyl-1-(6-(methoxy)-2-fluoroquinolin-3-yl)methanimine oxide]",Neuroprotection at 1 µM,[2],26.3 ± 0.89%
same,Neuroprotection at 10 µM,[2],25.1 ± 1.03%
same,"protective effect (cell viability compared with vehicle-treated group R24h), in words",,did not show significant differences to the value obtained for the vehicle-treated group
"COc1ccc2nc(F)c(/C=[N+](\[O-])C(C)(C)C)cc2c1 [QN7, (Z)-N-tert-Butyl-1-(6-(methoxy)-2-fluoroquinolin-3-yl)methanimine oxide]",Neuroprotection at 1 µM,[2],38.5 ± 0.62%
same,"protective effect (cell viability compared with vehicle-treated group R24h), in words",,did not show significant differences to the value obtained for the vehicle-treated group
"COc1ccc2nc(S(=O)(=O)c3ccccc3)c(/C=[N+](\[O-])Cc3ccccc3)cc2c1 [QN8, (Z)-N-Benzyl-1-(6-methoxy-2-(phenylsulfonyl)quinolin-3-yl)methanimine oxide]","neuroprotection effect / potency compared with references, in words",,highest neuroprotection effect
same,Neuroprotection at 1 µM,[2],54.1 ± 2.27%
"COc1ccc2nc(S(=O)(=O)c3ccc([N+](=O)[O-])cc3)c(/C=[N+](\[O-])Cc3ccccc3)cc2c1 [QN10, (Z)-N-Benzyl-1-(2-((4-nitrophenyl)sulfonyl)-6-methoxyquinolin-3-yl)methanimine oxide]",Neuroprotection at 1 µM,[2],47.2 ± 0.94%
"COc1ccc2nc(S(=O)(=O)c3ccc([N+](=O)[O-])cc3)c(/C=[N+](\[O-])C(C)(C)C)cc2c1 [QN11, (Z)-N-tert-Butyl-1-(2-((4-nitrophenyl)sulfonyl)-6-methoxyquinolin-3-yl)methanimine oxide]",Neuroprotection at 1 µM,[2],46.5 ± 1.94%
"COc1ccc2nc(-c3ccc(C(F)(F)F)cc3)c(/C=[N+](\[O-])C(C)(C)C)cc2c1 [QN13, (Z)-N-tert-Butyl-1-(6-methoxy-2-(4-(trifluoromethyl)phenyl)quinolin-3-yl)methanimine oxide]",Neuroprotection at 1 µM,[2],39.3 ± 1.16%
"COc1ccc2nc(-c3ccc([N+](=O)[O-])cc3)c(/C=[N+](\[O-])Cc3ccccc3)cc2c1 [QN14, (Z)-N-Benzyl-1-(6-methoxy-2-(4-nitrophenyl)quinolin-3-yl)methanimine oxide]","neuroprotection effect / potency compared with references, in words",,highest neuroprotection effect
same,cell viability,1 µM,1.742 ± 0.04 AU
same,Neuroprotection at 1 µM,[2],60.1 ± 1.24%
same,"toxicity / safety, in words",,safe
"COc1ccc2nc(-c3ccc([N+](=O)[O-])cc3)c(/C=[N+](\[O-])C(C)(C)C)cc2c1 [QN15, (Z)-N-tert-Butyl-1-(6-methoxy-2-(4-nitrophenyl)quinolin-3-yl)methanimine oxide]","neuroprotection effect / potency compared with references, in words",,highest neuroprotection effect
same,Neuroprotection at 1 µM,[2],48.1 ± 1.21%
same,"toxicity / safety, in words",,safe
"CCOC(=O)/C=C/c1nc2ccc(OC)cc2cc1/C=[N+](\[O-])C(C)(C)C [QN16, (Z)-N-tert-Butyl-1-(2-((E)-3-ethoxy-3-oxoprop-1-en-1-yl)-6-methoxyquinolin-3-yl)methanimine oxide]","effect compared with vehicle R24h, in words",1 µM dose,higher effect than vehicle R24h
"COc1ccc2nc(Cl)c(/C=[N+](\[O-])C(C)(C)C)cc2c1 [QN23, (Z)-N-tert-butyl-1-(2-chloro-6-methoxyquinolin-3-yl)methanimine oxide, reference compound]",cell viability,10 µM,1.695 ± 0.03 AU
same,Neuroprotection at 10 µM,[2],49 ± 0.89%
"C[N+](C)(C)CCOP(=O)(O)OP(=O)([O-])OC[C@H]1O[C@@H](n2ccc(N)nc2=O)[C@H](O)[C@@H]1O [citicoline, reference compound]",cell viability,100 µM,1.588 ± 0.02 AU
